Test results as given in patent US20250189533A1, “BEAD-BASED ASSAY TO SCREEN FOR INHIBITOR PROTEIN-GLYCAN INTERACTIONS IN NEURODEGENERATION” (Rensselaer Polytechnic Institute, priority 2023, published 2025).

Legend:
tau = biological target: T1, tau (Homo sapiens, UniProt P10636); test: Heparin-induced tau aggregation; type: biochemical
T1 construct: recombinant full-length tau (2N4R, as 1-441); made in house; host or cells: E. coli BL21-DE3
Excerpt: (§1) Referring to FIG. 3B, in some embodiments, the screening compound 150 comprises 9-hydroxy-2-(2-piperidinylethyl) ellipticinium acetate or 6H-Pyrido [4, 9-hydroxy-5,11-dimethyl-2-[2-(1-piperidinyl)ethyl]-, acetate (A9) 300. […] A9 300 may comprise a chemical formula of C24H28N3O·C2H3O2 and a molecular weight of 434.0 g/mol. Additional analysis of A9 300 was done by performing a cell uptake assay utilizing H4 neuroglioma cells. […] In some embodiments, A9 300 is effective to disrupt tau-heparin interaction when present in a higher concentration than the concentration of tau. In some embodiments, A9 300 is effective when present in about a 100-fold molar excess relative to the tau-heparin complex.

[1] = tested on: tau uptake in H4 neuroglioma cells; test: Cell uptake assay utilizing H4 neuroglioma cells; type: cell-based
Excerpt: as §1

[2] = biological target: T2, tau-HS interaction (heparin) (Homo sapiens, UniProt P10636); test: NMR probing of the tau-A9 interface; type: binding
T2 construct: recombinant full-length tau (2N4R, as 1-441); made in house; host or cells: E. coli BL21-DE3
T2 sequence (P10636 1-441 isoform P10636-8): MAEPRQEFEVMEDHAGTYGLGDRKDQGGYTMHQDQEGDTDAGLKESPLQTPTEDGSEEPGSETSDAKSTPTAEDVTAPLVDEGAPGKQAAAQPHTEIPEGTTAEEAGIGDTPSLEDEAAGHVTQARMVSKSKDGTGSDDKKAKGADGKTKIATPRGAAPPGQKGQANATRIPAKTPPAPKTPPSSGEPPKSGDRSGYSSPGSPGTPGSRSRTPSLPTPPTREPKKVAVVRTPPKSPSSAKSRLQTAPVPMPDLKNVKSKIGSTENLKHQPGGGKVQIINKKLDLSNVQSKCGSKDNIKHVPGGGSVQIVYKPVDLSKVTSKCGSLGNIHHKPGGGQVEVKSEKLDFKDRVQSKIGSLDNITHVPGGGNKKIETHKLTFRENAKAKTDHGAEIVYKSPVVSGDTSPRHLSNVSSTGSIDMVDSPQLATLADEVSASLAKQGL

[3] = biological target: T3, His-tagged tau / biotinylated heparin interaction (Homo sapiens, UniProt P10636); test: Bead-based ALPHA assay screening for inhibitors of tau-heparin interaction; type: binding
T3 construct: recombinant full-length tau (2N4R, as 1-441); made in house; host or cells: E. coli BL21-DE3
T3 sequence (P10636 1-441 isoform P10636-8): as above
Excerpt: In some embodiments, the detecting portion 161 is configured to measure a fluorescent emission 164 when the at least one donor bead 110 and the at least one acceptor bead 120 are brought in proximity of one another. In some embodiments, the emitting portion 163 configured to emit a beam of light 162 at a specific wavelength onto the at least one donor bead 110. In some embodiments, the at least one donor bead 110 becomes excited at the specific wavelength, which results in a light emission by the at least one acceptor bead 120. […] In some embodiments, the ability and effectiveness of the screening molecule 150 to inhibit protein-glycan interactions is determined based on the strength of the emission 164, where inhibitors decrease the strength of the emission 164. […] In some embodiments, the user interface outputs information related to the emission 164 detected by the detecting portion 161.
At 214, the results are determined, meaning that whether or not the screening compound disrupts interactions at the protein-glycan interface is determined. In some embodiments, in the case of the screening molecule 150 being determined to disrupt interactions at the protein-glycan interface, the relative strength of the disruption may also be determined. […]

T1 sequence (P10636 1-441 isoform P10636-8): as above

CC(=O)[O-].Cc1c2cc[n+](CCN3CCCCC3)cc2c(C)c2c1[nH]c1ccc(O)cc12 [A9, 9-hydroxy-2-(2-piperidinylethyl) ellipticinium acetate]
inhibition of heparin-induced tau aggregation (tau): inhibit heparin-induced tau aggregation in a dose-dependent manner
inhibition of tau uptake [1]: inhibited tau uptake in a dose-dependent manner
mechanism of disruption of tau-HS interaction ([2]; NMR): disrupt the tau-HS interaction by occupying the glycan
region of compound that binds heparin ([2]; further analysis): aromatic region binds to heparin instead of its aliphatic carbons
detected fluorescent signal in screen of NCI diversity Set VI ([3]; 0.1 μM His-tau, 0.1 μM biotinylated heparin, 1 h room temperature, excitation 680 nm, emission 620 nm, lower signal = stronger inhibition): lowest detected fluorescent signal
protein-glycan inhibition, dose-dependent follow-up, ranking among the six hits ([3]; varying compound concentrations): greatest protein-glycan inhibition
